The values below come from ChEMBL document CHEMBL1201862, “PubChem BioAssay data set” (2004).

Among the test systems are A549; UACC-257; ACHN; IGROV-1; MCF7; K562; HOP-92; SK-MEL-5; NCI/ADR-RES; MDA-MB-231; NCI-H23; SR; A498; CCRF-CEM; MDA-N; SF-539; RXF 393; Hs-578T; MOLT-4.
Common to all, as to assay: growth of human tumour cells (NCI), 48 h

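Tested at 5 concentrations; 48 h exposure; 96-well plates; endpoints linearly interpolated, else capped at highest concentration. The concentration for 50% growth inhibition is given as GI50.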 Calls of active or inactive are those of the source. Cut-off read from the data, not from the text of the source: active = GI50 up to about 1.1 µM and inactive = higher.

Take `N=C(N)NC(=N)Nc1ccc(S(=O)(=O)O)cc1`: the GI50 in the assay with A549, with UACC-257, in the assay on ACHN, in the assay with IGROV-1, in the assay on MCF7 and with K562 was > 100 µM (inactive) throughout. For the same compound, the GI50 is 77.8 µM (inactive) with HOP-92; > 100 µM (inactive) in the assay on SK-MEL-5; > 100 µM (inactive) in the assay on NCI/ADR-RES; > 100 µM (inactive) in the assay on MDA-MB-231; > 100 µM (inactive) in the assay with NCI-H23; > 100 µM (inactive) with SR. The GI50 in the assay with A498, in the assay on CCRF-CEM, in the assay on MDA-N, in the assay with SF-539, with RXF 393 and in the assay with Hs-578T was > 100 µM (inactive) each time.

`c1cc2c3ccsc3c3sccc3c2s1`: the GI50 with A549 is > 100 µM (inactive); in the assay with UACC-257 it was > 100 µM (inactive); in the assay on ACHN, > 100 µM (inactive); in the assay on IGROV-1 it was 16.3 µM (inactive); with MCF7, 26.9 µM (inactive); in the assay with K562, > 100 µM (inactive). Further, the GI50 with HOP-92 is > 100 µM (inactive); with SK-MEL-5 it was > 100 µM (inactive); in the assay on NCI/ADR-RES, > 100 µM (inactive); in the assay on MDA-MB-231, > 100 µM (inactive); in the assay with NCI-H23, 47.5 µM (inactive); with SR, 24.7 µM (inactive). The GI50 in the assay with A498 was > 100 µM (inactive); in the assay on CCRF-CEM, > 100 µM (inactive); in the assay with MDA-N, > 100 µM (inactive); in the assay on MOLT-4, 55.7 µM (inactive); in the assay with SF-539, 90.8 µM (inactive); in the assay on RXF 393, > 100 µM (inactive). In the assay with Hs-578T, the GI50 was 11.9 µM (inactive).

For `COc1cc(C(=O)OCCn2[nH]c(-c3ccc(Cl)cc3)nc2=S)cc(OC)c1OC`, the GI50 in the assay on A549 was 98.6 µM (inactive); with UACC-257, 44.1 µM (inactive); with ACHN it was > 100 µM (inactive); in the assay with MCF7 it was > 100 µM (inactive); in the assay on K562, 47.8 µM (inactive); in the assay on HOP-92, 27.5 µM (inactive). Also, the GI50 in the assay with SK-MEL-5 was 48.2 µM (inactive); in the assay on NCI/ADR-RES, 57 µM (inactive); in the assay on MDA-MB-231, > 100 µM (inactive); in the assay on NCI-H23 it was 49.1 µM (inactive); with SR, 37.8 µM (inactive); in the assay on A498, > 100 µM (inactive). Besides, the GI50 with CCRF-CEM is 33 µM (inactive); in the assay with MDA-N it was 49 µM (inactive); in the assay on MOLT-4, 22.9 µM (inactive); in the assay with SF-539, 60.8 µM (inactive); with RXF 393, 1.33 µM (inactive); with Hs-578T, 47.8 µM (inactive).

For `CCOP(=O)(CC1CC(O)(CNc2cc(Cl)nc(N)n2)C1)OCC` (stereo unspecified), the GI50 in the assay on A549, in the assay with UACC-257, in the assay with ACHN, with IGROV-1, in the assay on MCF7 and in the assay on K562 was > 100 µM (inactive) each time. Besides, the GI50 in the assay with HOP-92, with SK-MEL-5, in the assay on NCI/ADR-RES, in the assay with MDA-MB-231, in the assay on NCI-H23 and with SR was > 100 µM (inactive) in each case. The GI50 in the assay on A498, in the assay with CCRF-CEM, in the assay on MDA-N, in the assay on MOLT-4, in the assay on SF-539 and in the assay on RXF 393 was > 100 µM (inactive) each time. Also, the GI50 with Hs-578T is > 100 µM (inactive).

Take `Cc1c(C)c(C)c(-n2[nH]c(=O)n(C)c2=O)c(C)c1C`: the GI50 in the assay with A549, with UACC-257, in the assay with ACHN, in the assay with IGROV-1, in the assay on MCF7 and in the assay on K562 was > 100 µM (inactive) throughout. The GI50 with HOP-92, with SK-MEL-5, in the assay on NCI/ADR-RES, in the assay with MDA-MB-231, in the assay on NCI-H23 and in the assay with SR was > 100 µM (inactive) in each case. The GI50 in the assay with A498, in the assay on CCRF-CEM, in the assay on MDA-N, in the assay on MOLT-4, with SF-539 and in the assay with Hs-578T was > 100 µM (inactive) in each case.

Consider `Cc1cc2sc(C)[n+](CCCOS(=O)(=O)[O-])c2cc1C`, for which the GI50 is > 100 µM (inactive) with A549; > 100 µM (inactive) in the assay with UACC-257; > 100 µM (inactive) in the assay with ACHN; > 100 µM (inactive) with IGROV-1; 60.8 µM (inactive) in the assay with MCF7; 63.4 µM (inactive) in the assay on K562. The GI50 is > 100 µM (inactive) in the assay with HOP-92; > 100 µM (inactive) with SK-MEL-5; > 100 µM (inactive) in the assay with NCI/ADR-RES; > 100 µM (inactive) in the assay on MDA-MB-231; > 100 µM (inactive) with NCI-H23; 66.2 µM (inactive) in the assay on SR. For the same compound, the GI50 in the assay on A498 was > 100 µM (inactive); in the assay on MDA-N, > 100 µM (inactive); with MOLT-4, 72.4 µM (inactive); in the assay on SF-539, > 100 µM (inactive); in the assay on RXF 393, > 100 µM (inactive); in the assay with Hs-578T, 27.9 µM (inactive).

With `CC(C(=O)ON1C(=O)CCC1=O)c1ccc(C(=O)c2ccccc2)s1` (stereo unspecified), the GI50 in the assay on A549, with UACC-257, in the assay with ACHN, in the assay on IGROV-1, with MCF7 and with K562 was > 100 µM (inactive) each time. Besides, the GI50 with HOP-92, with SK-MEL-5, in the assay on NCI/ADR-RES, in the assay on MDA-MB-231, in the assay with NCI-H23 and with SR was > 100 µM (inactive) throughout. Besides, the GI50 in the assay with A498, with CCRF-CEM, with MDA-N, with MOLT-4, in the assay with RXF 393 and in the assay with Hs-578T was > 100 µM (inactive) each time.

In the case of `CC1=NN(c2cccc(Cl)c2)C2(SCC(=O)N2c2nc3ccccc3s2)/C1=C\c1cccs1` (stereo unspecified), the GI50 was 33.8 µM (inactive) with A549; 24.4 µM (inactive) with UACC-257; 27.9 µM (inactive) in the assay with ACHN; 27.3 µM (inactive) with IGROV-1; 27.4 µM (inactive) in the assay with MCF7; 4.58 µM (inactive) with K562. For the same compound, the GI50 with HOP-92 is 22.2 µM (inactive); in the assay on SK-MEL-5, 18.1 µM (inactive); with NCI/ADR-RES, 21.9 µM (inactive); in the assay on MDA-MB-231, 30.2 µM (inactive); in the assay with NCI-H23 it was 18.5 µM (inactive); with SR, 11.7 µM (inactive). The GI50 in the assay with A498 is 25.4 µM (inactive); in the assay with MDA-N, 21.1 µM (inactive); with MOLT-4, 11.4 µM (inactive); with SF-539 it was 5.01 µM (inactive); with RXF 393, 20.3 µM (inactive); in the assay with Hs-578T, 22.5 µM (inactive).

As to `COc1ccc(C2SC(=N)Nc3c2c(C)nn3C(=O)c2ccccc2O)cc1OC` (stereo unspecified), the GI50 in the assay with A549 was 3.4 µM (inactive); in the assay with UACC-257 it was > 10 µM (inactive); in the assay on ACHN, 3.91 µM (inactive); in the assay on IGROV-1, 4.71 µM (inactive); with MCF7, 3.3 µM (inactive); in the assay with K562, 3.53 µM (inactive). For the same compound, the GI50 with HOP-92 was 1.08 µM (active); with NCI/ADR-RES it was 5.52 µM (inactive); in the assay on MDA-MB-231, 7.5 µM (inactive); with NCI-H23, 3.52 µM (inactive); in the assay with SR, 4.75 µM (inactive); in the assay with A498, 5.93 µM (inactive). The GI50 in the assay with CCRF-CEM was 4.93 µM (inactive); with MDA-N it was 6.08 µM (inactive); with MOLT-4, 4.06 µM (inactive); in the assay on SF-539 it was 2.84 µM (inactive); with RXF 393, 3.61 µM (inactive); with Hs-578T, 1.56 µM (inactive).

Regarding `O=C(O)[C@H](c1ccccc1)[C@@H](C(=O)O)c1ccccc1`, the GI50 in the assay with A549, in the assay with UACC-257, in the assay with ACHN, in the assay with IGROV-1, in the assay with MCF7 and in the assay with K562 was > 100 µM (inactive) in each case. Moreover, the GI50 in the assay with HOP-92, in the assay on SK-MEL-5, in the assay with NCI/ADR-RES, with MDA-MB-231, in the assay with NCI-H23 and in the assay with SR was > 100 µM (inactive) each time. Also, the GI50 with A498, in the assay on MDA-N, with MOLT-4, in the assay with SF-539, with RXF 393 and in the assay with Hs-578T was > 100 µM (inactive) throughout.

As for `O=C(CC(O)(C(F)(F)Cl)C(F)(F)Cl)CC(O)(C(F)(F)Cl)C(F)(F)Cl`, the GI50 was 1.73 µM (inactive) with A549; 1.41 µM (inactive) in the assay on UACC-257; 0.927 µM (active) in the assay with ACHN; 2.17 µM (inactive) with IGROV-1; 2.14 µM (inactive) with MCF7; 0.843 µM (active) in the assay on K562. In addition, the GI50 was 0.75 µM (active) in the assay with HOP-92; 1.25 µM (inactive) in the assay with SK-MEL-5; 2.06 µM (inactive) with NCI/ADR-RES; 2.05 µM (inactive) in the assay with MDA-MB-231; 0.975 µM (active) with NCI-H23; 2.65 µM (inactive) in the assay on SR. Moreover, the GI50 was 2.21 µM (inactive) in the assay with A498; 2.29 µM (inactive) with CCRF-CEM; 3.49 µM (inactive) in the assay with MDA-N; 2.14 µM (inactive) with MOLT-4; 2.95 µM (inactive) in the assay with SF-539; 1.8 µM (inactive) in the assay with RXF 393. Further, the GI50 with Hs-578T was 1.92 µM (inactive).
